Results: paper PMC10893631, “Receptor-based pharmacophore modeling, molecular docking, synthesis and biological evaluation of novel VEGFR-2, FGFR-1, and BRAF multi-kinase inhibitors” (BMC Chemistry, 2024)

Tests used:
VEGFR-2 = molecular target: T1, VEGFR-2 (Homo sapiens, UniProt P35968); assay: VEGFR-2 kinase assay kit (BPS), Kinase-Glo Max luminescence; assay type: biochemical; conditions: VEGFR-2, single dose 10 µM, duplicate, mean ± SD
T1 construct: purchased BPS Biosciences 40325

[1] = test system: NCI panel of 60 tumor cell lines; assay: NCI SRB growth inhibition, whole panel mean (single dose 10 µM / five-dose); assay type: cell-based, human
How it was run: (§1)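 Cells plated at 5000–40,000 cells/well by doubling time; time-zero plates TCA-fixed after 24 h. Compounds (DMSO stocks) added at five 10-fold or ½-log concentrations plus control. Adherent cells TCA-fixed, stained with 0.4% SRB in 1% acetic acid; percentage growth from Tz, C and Ti absorbances.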

786–0 = assay: NCI SRB growth inhibition (single dose 10 µM / five-dose); assay type: cell-based, human
How it was run: as §1

HL-60(TB) = assay: as above; assay type: cell-based, human
How it was run: as §1

HOP-92 = assay: as above; assay type: cell-based, human; conditions: HOP-92 (Non-small cell lung cancer), 10 µM
How it was run: as §1

LOX IMVI = assay: as above; assay type: cell-based, human
How it was run: as §1

NCI-H23 = assay: as above; assay type: cell-based, human
How it was run: as §1

NCI-H322M = assay: as above; assay type: cell-based, human
How it was run: as §1

NCI/ADR-RES = assay: as above; assay type: cell-based, human
How it was run: as §1

SF-539 = assay: as above; assay type: cell-based, human
How it was run: as §1

UACC-257 = assay: as above; assay type: cell-based, human
How it was run: as §1

UACC-62 = assay: as above; assay type: cell-based, human
How it was run: as §1

T1 sequence (P35968 20-1356): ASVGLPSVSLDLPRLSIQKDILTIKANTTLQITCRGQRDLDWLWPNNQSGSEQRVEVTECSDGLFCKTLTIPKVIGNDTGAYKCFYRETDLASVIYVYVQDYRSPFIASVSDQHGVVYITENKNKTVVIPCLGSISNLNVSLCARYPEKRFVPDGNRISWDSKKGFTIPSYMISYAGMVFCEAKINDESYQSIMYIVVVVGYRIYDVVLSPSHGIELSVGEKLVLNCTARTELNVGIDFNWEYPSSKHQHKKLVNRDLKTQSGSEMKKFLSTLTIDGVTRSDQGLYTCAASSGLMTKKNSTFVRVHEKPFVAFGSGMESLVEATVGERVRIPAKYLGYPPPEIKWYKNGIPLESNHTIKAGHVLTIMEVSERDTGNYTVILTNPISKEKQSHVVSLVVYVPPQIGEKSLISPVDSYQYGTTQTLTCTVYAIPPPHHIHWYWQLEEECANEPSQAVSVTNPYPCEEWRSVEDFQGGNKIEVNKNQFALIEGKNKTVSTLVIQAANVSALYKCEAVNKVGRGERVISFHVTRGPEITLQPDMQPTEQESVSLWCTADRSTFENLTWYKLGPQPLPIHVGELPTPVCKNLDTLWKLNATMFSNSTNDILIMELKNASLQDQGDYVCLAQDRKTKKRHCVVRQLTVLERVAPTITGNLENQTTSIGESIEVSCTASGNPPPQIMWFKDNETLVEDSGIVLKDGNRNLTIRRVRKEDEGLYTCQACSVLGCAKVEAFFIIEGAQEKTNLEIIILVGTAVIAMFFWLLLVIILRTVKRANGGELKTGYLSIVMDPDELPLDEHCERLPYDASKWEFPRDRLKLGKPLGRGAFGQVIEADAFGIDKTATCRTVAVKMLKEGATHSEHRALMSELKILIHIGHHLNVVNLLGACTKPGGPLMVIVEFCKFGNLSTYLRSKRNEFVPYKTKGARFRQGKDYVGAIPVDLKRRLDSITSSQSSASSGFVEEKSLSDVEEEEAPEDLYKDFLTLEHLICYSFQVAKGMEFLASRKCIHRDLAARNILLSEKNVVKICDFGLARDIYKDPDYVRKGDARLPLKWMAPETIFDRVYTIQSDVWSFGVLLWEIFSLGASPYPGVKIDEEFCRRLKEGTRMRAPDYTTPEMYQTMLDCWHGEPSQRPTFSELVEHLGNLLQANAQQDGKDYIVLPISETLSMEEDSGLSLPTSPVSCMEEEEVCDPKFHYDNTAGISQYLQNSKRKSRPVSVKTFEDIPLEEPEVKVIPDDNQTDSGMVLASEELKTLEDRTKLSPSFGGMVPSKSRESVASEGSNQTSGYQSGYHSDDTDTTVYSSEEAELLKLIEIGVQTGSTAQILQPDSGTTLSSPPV

Substance: N'-(2-Hydroxybenzylidene)-2-phenyl-1H-benzo[d]imidazole-5-carbohydrazide [8a]
- % Inhibition (VEGFR-2): 43.03 ± 2.32%
- mean growth inhibition % (GI%) ([1]; 10 µM, mean over NCI 60 cell lines, > 100% = lethal effect): 97.73%
- GI50 ([1]; mean over NCI cancer cell lines, five-dose): 3 µM
- Mean growth inhibition % ([1]; mean over NCI panel of 60 tumor cell lines, 10 µM): 97.73%
- GI% (786–0; 786–0 (Renal cancer), 10 µM): 91.76%
- GI50 (786–0; 786–0, Renal cancer, five-dose): 3.84 µM
- GI% (HL-60(TB); HL-60(TB) (Leukemia), 10 µM): 95.58%
- GI50 (HL-60(TB); HL-60(TB), Leukemia, five-dose): 3.08 µM
- GI% (HOP-92): L (GI% > 100)
- GI% (LOX IMVI; LOX IMVI (Melanoma), 10 µM): 88.38%
- GI50 (LOX IMVI; LOX IMVI, Melanoma, five-dose): 2 µM
- GI% (NCI-H23; NCI-H23 (Non-small cell lung cancer), 10 µM): 83.12%
- GI50 (NCI-H23; NCI-H23, Non-small cell lung cancer, five-dose): 3.31 µM
- GI% (NCI-H322M; NCI-H322M (Non-small cell lung cancer), 10 µM): 94.14%
- GI50 (NCI-H322M; NCI-H322M, Non-small cell lung cancer, five-dose): 2.13 µM
- GI% (NCI/ADR-RES; NCI/ADR-RES (Ovarian cancer), 10 µM): 63.15%
- GI50 (NCI/ADR-RES; NCI/ADR-RES, Ovarian cancer, five-dose): 3.51 µM
- GI% (SF-539; SF-539 (CNS cancer), 10 µM): L (GI% > 100)
- GI50 (SF-539; SF-539, CNS cancer, five-dose): 2.74 µM
- GI% (UACC-257; UACC-257 (Melanoma), 10 µM): 88.80%
- GI50 (UACC-257; UACC-257, Melanoma, five-dose): 4 µM
- GI% (UACC-62; UACC-62 (Melanoma), 10 µM): 75.88%
- GI50 (UACC-62; UACC-62, Melanoma, five-dose): 3.66 µM
